Results: US20230190743A1, “TREATMENT WITH ILEAL BILE ACID TRANSPORTER (IBAT) INHIBITORS FOR INCREASED EVENT-FREE SURVIVAL (EFS)” (Mirum Pharmaceuticals, Inc., priority 2021, published 2023)

How the values were obtained:
Assay type in all cases: in vivo, human
[1] = test system: patients with PFIC due to BSEP deficiency (nontruncated BSEP mutation); experiment: INDIGO long-term study, sBA control after >4.5 years of MRX
Excerpt: Maralixibat (MRX) is an ileal bile acid transport (IBAT) inhibitor approved for the treatment of pruritus in patients with Alagille syndrome aged 1 year and older and under evaluation in patients with PFIC.

[2] = test system: patients with BSEP deficiency (PFIC2); experiment: INDIGO Phase 2 trial, HRQoL analysis by sBA treatment response at week 48; parameters: key to HRQoL score at week 48, PedsQL Generic Core Scale / HRQoL score at week 48, Multidimensional Fatigue Scale / HRQoL score at week 48, Family Impact Scale: HRQoL scale scores in points; MCID = 5 points; key to Beta, sBA treatment response at week 48 Yes vs No, Multidimensional Fatigue Scale / Beta, sBA treatment response at week 48 Yes vs No, Family Impact Scale: change from baseline in HRQoL score, in points (MCID 5 points); settings: for 5-point change, Family Impact Scale / 5-point change, Multidimensional Fatigue Scale / 5-point change, PedsQL Generic Core Scale / 10-point change, Family Impact Scale / 10-point change, Multidimensional Fatigue Scale / 10-point change, PedsQL Generic Core Scale: baseline to week 48; for HRQoL score at week 48, Family Impact Scale / HRQoL score at week 48, Multidimensional Fatigue Scale / HRQoL score at week 48, PedsQL Generic Core Scale / HRQoL score change from baseline to week 48, Family Impact Scale: mean ± SD
Method: This retrospective analysis included data from patients with BSEP deficiency from the INDIGO Phase 2 open-label trial of MRX in children with PFIC. Pruritus was measured using a validated caregiver-reported Itch Reported Outcome (ItchRO) severity assessment tool (0=none to 4=very severe). Serum bile acid (sBA) response with MRX was defined as a >75% decrease from baseline or reduction to <102 μmol/L from baseline to week 48. HRQoL was assessed using the Pediatric Quality of Life Inventory Generic Core (PedsQL), Family Impact (FI), and Multidimensional Fatigue (MF) scale scores, and were collected via caregiver. The minimal clinically important difference (MCID) for the HRQoL assessments is 5 points. A subset of individual items from the HRQoL scales were also selected for assessment with treatment response. HRQoL was assessed at baseline and week 48 and scores were stratified by treatment response. P-values were calculated using t-test or ANOVA. Multivariate linear regression models were used to assess the relationship between mean change from baseline in HRQoL score and indicators for treatment response, adjusting for baseline HRQoL.

patients with ALGS = experiment: Predictors of 6-year EFS and TFS in maralixibat-treated patients from three long-term clinical trials
Method: MRX-treated ALGS patients from 3 long-term clinical trials were followed for development of clinically significant events (LTx, surgical biliary diversion [SBD], hepatic decompensation [ascites requiring therapy and variceal bleeding], and death) for up to 6 yrs. TFS (LTx and death only) was also assessed. Those who were on MRX 48 weeks from the first dose and had lab results at 48 weeks were included in this analysis. Variables considered in the model included: liver biochemistries, platelets, pruritus (as assessed by ItchRO(Obs) 0¬4 scale), total serum bile acids (sBA), and age. Goodness of fit was assessed using Harrell's concordance statistic (C-statistic). Cutoffs were determined via a grid search. P-values are from a log-rank test.
Patients (N=76) with ALGS aged 14-207 months with moderate-to-severe pruritus were included in this analysis. Maralixibat-treated patients with ALGS from three long-term clinical trials (ClinicalTrials.gov ID: NCT02047318; ClinicalTrials.gov ID: NCT02160782; ClinicalTrials.gov ID: NCT02117713) were followed for development of first clinically significant event (LT, surgical biliary diversion, hepatic decompensation [ascites requiring therapy and variceal bleeding], or death) for up to six years. TFS (LT and death only) was also assessed. Patients who were on maralixibat 48 weeks from the first dose and had lab results at 48 weeks were included in this analysis.
Variables considered in the model included: liver biochemistries, platelets, pruritus (as assessed by Itch-Reported Outcome [Observer] [ItchRO(Obs)] 0-4 scale), total sBA, and age at initiation. These were explored at baseline, week 48, and change from baseline to week 48. Goodness of fit was assessed using Harrell's concordance statistic (C-statistic). Variables with a value ≥0.7 (indicating a good model) were selected for further analysis. Cutoffs for each variable were determined via a grid search across the range of values. Statistical comparisons between the cutoff groups were calculated using a log-rank test.

[3] = patients with sBA control, to Week 237, p<0.05
[4] = over the 48 weeks, controlling for baseline score
[5] = Week 48 sBA <200 μmol/L, n = 56
[6] = Week 48 sBA ≥200 μmol/L, n = 18
[7] = Week 48 total bilirubin <6.5 mg/dL, n = 52
[8] = Week 48 total bilirubin ≥6.5 mg/dL, n = 24
[9] = age at initiation of maralixibat <36 months, n = 21
[10] = age at initiation of maralixibat ≥36 months, n = 55
[11] = change from baseline to week 48 ItchRO(Obs) >1 pt reduction, n = 46
[12] = change from baseline to week 48 ItchRO(Obs) ≤1 pt reduction, n = 30

## CCCCC1(CCCC)CS(=O)(=O)c2ccc(N(C)C)cc2[C@@H](c2ccc(OCc3ccc(C[N+]45CCN(CC4)CC5)cc3)cc2)[C@H]1O [maralixibat]
[1]; after >4.5 years of MRX, result in words
  listing for liver transplant: No ongoing patients were listed for liver transplant
[1]; most frequent TEAEs mild to moderate, result in words
  long-term safety and tolerability: safe and well tolerated
[1]; of n=19 with nontruncated BSEP mutation, sBA threshold ≤100 μmol/L
  patients who achieved sBA control and remained on-study as of Week 237: 7 patients
[1]; p<0.001, result in words
  pruritus: improved significantly
[1]; p<0.01, result in words
  Growth (height z-score): improved significantly
[1]; patients who achieved control of sBA during MRX treatment
  native liver survival: > 4.5 years
[1]; patients with sBA control, Week 237, vs. 299.6 μmol/L at baseline
  mean sBA value: 44.2 (38.8) μmol/L
[1]; patients with sBA control, Week 237, vs. 0.6 at BL
  mean direct bilirubin value: 0.1 mg/dL
[1]; patients with sBA control, Week 237, vs. 0.8 at BL
  mean total bilirubin value: 0.7 mg/dL
[1]; patients with sBA control, Week 237, vs. 57.9 at BL
  mean ALT value: 16.7 U/L
[1]; patients with sBA control, Week 237, vs. 62.1 at BL
  mean AST value: 26.7 U/L
[1]; [3]
  Mean (SE) sBA reduction: 234.4 (80.5) μmol/L
  Mean reduction in ALT: 41.1 (14.3) U/L
  Mean reduction in AST: 35.4 (11.5) U/L
[1]; patients with sBA control, to Week 237, p=0.13
  Mean reduction in direct bilirubin: 0.4 (0.2) mg/dL
[1]; patients with sBA control, to Week 237, p=0.8
  Mean reduction in total bilirubin: 0.1 (0.3) mg/dL
[1]; result in words
  bilirubin in those with abnormal bilirubin: normalized
[2]; at 48 weeks
  patients who achieved sBA treatment response: 6 patients
  patients who achieved sBA treatment response (>75% decrease from baseline or <102 μmol/L): 28.6%
[2]; multivariate regression, N = 16, CI 3.5, 41.1
  Beta, sBA treatment response at week 48 Yes vs No, Multidimensional Fatigue Scale: 22.3
[2]; multivariate regression, N = 20, CI −7.7, 19.4
  Beta, sBA treatment response at week 48 Yes vs No, Family Impact Scale: 5.8
[2]; [4]
  average increase of Multidimensional Fatigue scale score, sBA responders versus non-responders: 22 points
  mean increase of PedsQL score, sBA responders versus non-responders: 17 points
[2]; sBA Non-responders
  5-point change, Family Impact Scale: 1 (7.1) n (%)
  5-point change, Multidimensional Fatigue Scale: 3 (25.0) n (%)
  5-point change, PedsQL Generic Core Scale: 2 (15.4) n (%)
  10-point change, Family Impact Scale: 1 (7.1) n (%)
  10-point change, Multidimensional Fatigue Scale: 2 (16.7) n (%)
  10-point change, PedsQL Generic Core Scale: 2 (15.4) n (%)
  HRQoL score at week 48, Family Impact Scale: 62.7 ± 16.0
  HRQoL score at week 48, Multidimensional Fatigue Scale: 69.2 ± 18.5
  HRQoL score at week 48, PedsQL Generic Core Scale: 65.9 ± 13.8
  HRQoL score change from baseline to week 48, Family Impact Scale: −2.5 ± 9.8
[2]; sBA Responders
  5-point change, Family Impact Scale: 4 (66.7) n (%)
  5-point change, Multidimensional Fatigue Scale: 4 (100) n (%)
  5-point change, PedsQL Generic Core Scale: 4 (80.0) n (%)
  10-point change, Family Impact Scale: 4 (66.7) n (%)
  10-point change, Multidimensional Fatigue Scale: 4 (100) n (%)
  10-point change, PedsQL Generic Core Scale: 3 (60.0) n (%)
  HRQoL score at week 48, Family Impact Scale: 60.0 ± 15.5
  HRQoL score at week 48, Multidimensional Fatigue Scale: 76.0 ± 13.4
  HRQoL score at week 48, PedsQL Generic Core Scale: 79.3 ± 9.5
  HRQoL score change from baseline to week 48, Family Impact Scale: 8.0 ± 20.7
[2]; sBA non-responders
  patients with a change of ≥5 points in PedsQL Generic Core Total Scale Score: 15.4%
  patients with a ≥10-point change in PedsQL Multidimensional Fatigue Total Scale Score: 16.7%
[2]; sBA responders
  change in Family Impact Score from baseline to week 48: > 1.5 times the MCID
  patients with a change of ≥5 points in PedsQL Generic Core Total Scale Score: 80.0%
  patients with a ≥10-point change in PedsQL Multidimensional Fatigue Total Scale Score: 100%
Patients with ALGS; 76 patients
  clinical event: LT: 10 n
  clinical event: death: 2 n
  clinical event: decompensation: 3 n
  clinical event: surgical biliary diversion: 1 n
Patients with ALGS; 76 patients, up to six years
  patients who experienced clinical events: Sixteen
Patients with ALGS; [5]
  6-year EFS: 6-year EFS: 85%
  6-year TFS: 6-year TFS: 90%
Patients with ALGS; [6]
  6-year EFS: 6-year EFS: 49%
  6-year TFS: 6-year TFS: 49%
Patients with ALGS; [7]
  6-year EFS: 6-year EFS: 90%
  6-year TFS: 6-year TFS: 94%
Patients with ALGS; [8]
  6-year EFS: 6-year EFS: 43%
  6-year TFS: 6-year TFS: 42%
Patients with ALGS; [9]
  6-year EFS: 6-year EFS: 57%
  6-year TFS: 6-year TFS: 57%
Patients with ALGS; [10]
  6-year EFS: 6-year EFS: 83%
  6-year TFS: 6-year TFS: 87%
Patients with ALGS; [11]
  6-year EFS: 6-year EFS: 88%
  6-year TFS: 6-year TFS: 93%
Patients with ALGS; [12]
  6-year EFS: 6-year EFS: 57%
  6-year TFS: 6-year TFS: 57%
Patients with ALGS; number of worse EFS predictor variables: 0
  6-year EFS (%): 89%
Patients with ALGS; number of worse EFS predictor variables: 1
  6-year EFS (%): 89%
Patients with ALGS; number of worse EFS predictor variables: 2
  6-year EFS (%): 86%
Patients with ALGS; number of worse EFS predictor variables: 3
  6-year EFS (%): 29%
Patients with ALGS; number of worse EFS predictor variables: 4
  6-year EFS (%): 33%
Patients with ALGS; patients with ≤2 predictors of worse EFS after 48 weeks of treatment
  rate of 6-year EFS: 88%
Patients with ALGS; patients with ≥3 predictors of worse EFS after 48 weeks of treatment
  rate of 6-year EFS: 31%
